Reference: the supplement of paper PMC5908809

How the values were obtained:
[1] = tested on: normal NK cells expanded with K562-aAPC; assay: percent inhibition of viability; higher = more inhibition; conditions: 72 h, IL-2 2.5 ng/mL
Experimental: (§1)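 Drug sensitivity and resistance testing on K562-aAPC-expanded normal NK cells: 5 concentrations (10-fold steps over a 10,000-fold range), 72 h at 37 °C, viability by CellTiter-Glo normalised to DMSO and benzethonium chloride controls; DSS from the fitted curve.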

DERL-7 (IL-2 2.5 ng/mL) [2] = assay: as above; conditions: 72 h
IMC-1 (IL-2 20 ng/mL) [3] = assay: as above; conditions: 72 h
KAI3 (IL-2 2.5 ng/mL) [4] = assay: as above; conditions: 72 h
KHYG-1 (IL-2 2.5 ng/mL) [5] = assay: as above; conditions: 72 h
NK-92 (IL-2 2.5 ng/mL) [6] = assay: as above; conditions: 72 h
NK-YS (IL-2 2.5 ng/mL) [7] = assay: as above; conditions: 72 h
NKL (IL-2 2.5 ng/mL) [8] = assay: as above; conditions: 72 h
SNK-6 (IL-2 2.5 ng/mL) [9] = assay: as above; conditions: 72 h
YT (IL-2 2.5 ng/mL) [10] = assay: as above; conditions: 72 h
[11] = tested on: normal primary NK cells, pool 1 (3 donors) (IL-2 2.5 ng/mL); assay: as above; conditions: 72 h
[12] = tested on: normal primary NK cells, pool 1 (3 donors), resting (IL-2 0 ng/mL); assay: as above; conditions: 72 h
[13] = tested on: normal primary NK cells, pool 2 (3 donors) (IL-2 2.5 ng/mL); assay: as above; conditions: 72 h
[14] = tested on: normal primary NK cells, pool 3 (3 donors) (IL-2 2.5 ng/mL); assay: as above; conditions: 72 h
[15] = tested on: normal NK cells expanded with K562-aAPC; assay: drug sensitivity score (DSS) (DSS units); higher = more sensitive; extreme values may be limits of the assay; conditions: 72 h; IL-2 2.5 ng/mL
Experimental: as §1

DERL-7 (IL-2 2.5 ng/mL) [16] = assay: as above; conditions: 72 h
IMC-1 (IL-2 20 ng/mL) [17] = assay: as above; conditions: 72 h
KAI3 (IL-2 2.5 ng/mL) [18] = assay: as above; conditions: 72 h
KHYG-1 (IL-2 2.5 ng/mL) [19] = assay: as above; conditions: 72 h
NK-92 (IL-2 2.5 ng/mL) [20] = assay: as above; conditions: 72 h
NK-YS (IL-2 2.5 ng/mL) [21] = assay: as above; conditions: 72 h
NKL (IL-2 2.5 ng/mL) [22] = assay: as above; conditions: 72 h
SNK-6 (IL-2 2.5 ng/mL) [23] = assay: as above; conditions: 72 h
YT (IL-2 2.5 ng/mL) [24] = assay: as above; conditions: 72 h
[25] = tested on: normal primary NK cells, pool 1 (3 donors) (IL-2 2.5 ng/mL); assay: as above; conditions: 72 h
[26] = tested on: normal primary NK cells, pool 1 (3 donors), resting (IL-2 0 ng/mL); assay: as above; conditions: 72 h
[27] = tested on: normal primary NK cells, pool 2 (3 donors) (IL-2 2.5 ng/mL); assay: as above; conditions: 72 h
[28] = tested on: normal primary NK cells, pool 3 (3 donors) (IL-2 2.5 ng/mL); assay: as above; conditions: 72 h

O=C1c2c(O)ccc(O)c2C(=O)c2c(NCCNCCO)ccc(NCCNCCO)c21 [Mitoxantrone] (max concentration tested 1000 nM)
percent inhibition of viability [%]
Conditions	0.1 nM	1 nM	10 nM	100 nM	1000 nM
DERL-7 (IL-2 2.5 ng/mL) [2]	-0.69	-3.99	7.25	45.4	81.1
IMC-1 (IL-2 20 ng/mL) [3]	-4.49	-5.12	2.6	19.3	92.1
KAI3 (IL-2 2.5 ng/mL) [4]	-18.6	-16.5	-1.68	41.7	74.6
KHYG-1 (IL-2 2.5 ng/mL) [5]	-1.32	3.99	7.39	17.7	72.5
NK-92 (IL-2 2.5 ng/mL) [6]	-10.5	-26.1	-3.86	11.4	45.4
NK-YS (IL-2 2.5 ng/mL) [7]	-6.35	-2.16	9.79	37.1	85.1
NKL (IL-2 2.5 ng/mL) [8]	-8.85	3.32	12	87	107
SNK-6 (IL-2 2.5 ng/mL) [9]	15	22.1	31.1	20.5	73.1
YT (IL-2 2.5 ng/mL) [10]	-1.6	4.64	3.75	-0.47	32.4
[1]	1.76	1.15	1.38	19	62
[11]	1.11	-8.14	0.77	-0.51	58.9
[12]	-14	-28.2	-16.5	24.1	91.4
[13]	-14.3	-3.15	3.94	9.38	53.6
[14]	-18.6	-1.63	-2.35	-0.69	45.1

Conditions	drug sensitivity score
DERL-7 (IL-2 2.5 ng/mL) [16]	10
IMC-1 (IL-2 20 ng/mL) [17]	8.2
KAI3 (IL-2 2.5 ng/mL) [18]	9.23
KHYG-1 (IL-2 2.5 ng/mL) [19]	6.72
NK-92 (IL-2 2.5 ng/mL) [20]	4.12
NK-YS (IL-2 2.5 ng/mL) [21]	8.97
NKL (IL-2 2.5 ng/mL) [22]	17.5
SNK-6 (IL-2 2.5 ng/mL) [23]	12.2
YT (IL-2 2.5 ng/mL) [24]	1.43
[15]	6.19
[25]	3.14
[26]	8.71
[27]	4.44
[28]	2.25

Cc1cc(OCc2nnc(SC3CCCC3)n2-c2cccnc2)ccc1-c1ccc(S(C)(=O)=O)cc1 [NMS-873] (max concentration tested 10000 nM)
percent inhibition of viability [%]
Conditions	1 nM	10 nM	100 nM	1000 nM	10000 nM
DERL-7 (IL-2 2.5 ng/mL) [2]	8.88	2.79	15.8	34.8	101
IMC-1 (IL-2 20 ng/mL) [3]	2.03	32.2	95.6	39.2	101
KAI3 (IL-2 2.5 ng/mL) [4]	3.12	7.92	11.3	35.3	105
KHYG-1 (IL-2 2.5 ng/mL) [5]	3.36	6	38	65.7	107
NK-92 (IL-2 2.5 ng/mL) [6]	-7.23	-12.4	12.5	70.3	107
NK-YS (IL-2 2.5 ng/mL) [7]	6.01	11.3	46.8	84.8	107
NKL (IL-2 2.5 ng/mL) [8]	11.2	14.7	26	52	106
SNK-6 (IL-2 2.5 ng/mL) [9]	0.98	31.4	15.3	33.6	101
YT (IL-2 2.5 ng/mL) [10]	-2.33	20.6	83.1	56.4	106
[1]	0.72	5.79	5.95	24.3	101
[11]	6.16	-1.92	22	43.5	98.7
[12]	-8.11	-16.4	24.5	58.2	91.2
[13]	-5.68	4.07	30.6	39.7	97.8
[14]	-2.38	0.99	24.8	27	99.8

Conditions	drug sensitivity score
DERL-7 (IL-2 2.5 ng/mL) [16]	9.55
IMC-1 (IL-2 20 ng/mL) [17]	26.4
KAI3 (IL-2 2.5 ng/mL) [18]	10.4
KHYG-1 (IL-2 2.5 ng/mL) [19]	17.9
NK-92 (IL-2 2.5 ng/mL) [20]	14.8
NK-YS (IL-2 2.5 ng/mL) [21]	22.1
NKL (IL-2 2.5 ng/mL) [22]	14.6
SNK-6 (IL-2 2.5 ng/mL) [23]	9.51
YT (IL-2 2.5 ng/mL) [24]	26.1
[15]	9.28
[25]	11.4
[26]	13.7
[27]	12.2
[28]	8.69

COc1ccc(-c2ccc3ncc4c(c3c2)n(-c2ccc(N3CCNCC3)c(C(F)(F)F)c2)c(=O)n4C)cn1 [NVP-BGT226] (max concentration tested 1000 nM)
percent inhibition of viability [%]
Conditions	0.1 nM	1 nM	10 nM	100 nM	1000 nM
DERL-7 (IL-2 2.5 ng/mL) [2]	-4.47	7.95	55.7	89	99.7
IMC-1 (IL-2 20 ng/mL) [3]	-2.15	-4.82	-34.6	55.1	97.2
KAI3 (IL-2 2.5 ng/mL) [4]	-0.77	1.29	25.3	57.2	94.7
KHYG-1 (IL-2 2.5 ng/mL) [5]	-2.44	1.07	4.41	76.8	95.9
NK-92 (IL-2 2.5 ng/mL) [6]	-5	-4.68	24.6	74.2	96.2
NK-YS (IL-2 2.5 ng/mL) [7]	-4.92	-1.99	27.6	76.4	95.7
NKL (IL-2 2.5 ng/mL) [8]	-10.6	-18.4	35.3	51.1	93.4
SNK-6 (IL-2 2.5 ng/mL) [9]	8.89	4.85	13.6	64.3	98.2
YT (IL-2 2.5 ng/mL) [10]	-4.65	-0.4	10.2	53.6	74.2
[1]	-0.83	1.88	18.5	46.3	99.4
[11]	-4.63	-3.38	9.25	46.3	99
[12]	5.35	-4.97	14.6	59.2	99
[13]	-6.87	0.35	13.2	39	99.7
[14]	-7.84	-7.37	7.07	21.4	98.8

Conditions	drug sensitivity score
DERL-7 (IL-2 2.5 ng/mL) [16]	24
IMC-1 (IL-2 20 ng/mL) [17]	11.9
KAI3 (IL-2 2.5 ng/mL) [18]	14.1
KHYG-1 (IL-2 2.5 ng/mL) [19]	14.8
NK-92 (IL-2 2.5 ng/mL) [20]	16.7
NK-YS (IL-2 2.5 ng/mL) [21]	17.5
NKL (IL-2 2.5 ng/mL) [22]	13.7
SNK-6 (IL-2 2.5 ng/mL) [23]	14.1
YT (IL-2 2.5 ng/mL) [24]	11.3
[15]	11.6
[25]	10.9
[26]	13.2
[27]	9.95
[28]	8.86
